Experimental data from patent US20240261294A1, “METHOD FOR TREATING IDH INHIBITOR-RESISTANT SUBJECTS” (Eli Lilly and Company, priority 2021, published 2024).
Positions count from the first letter of the chain named. pIC50: −log10 of the molar value. Like-named read-outs stand apart in the source and are kept apart here.

Experiments:
IDH2 R140L = molecular target: T1, IDH2 R140L (Homo sapiens, UniProt P48735, R140L); assay: Inhibition of 2-HG production in IDH2 mutant U-87 MG cells; type: cell-based; settings: 16 hours incubation, 50K cells/well, 100 μl media/well, read-out: Relative IC50 (nM) Mean, inhibition of 2-HG production
T1 construct: expressed in transfected cells; host or cells: U-87 MG
T1 sequence (P48735 40-452 R140L): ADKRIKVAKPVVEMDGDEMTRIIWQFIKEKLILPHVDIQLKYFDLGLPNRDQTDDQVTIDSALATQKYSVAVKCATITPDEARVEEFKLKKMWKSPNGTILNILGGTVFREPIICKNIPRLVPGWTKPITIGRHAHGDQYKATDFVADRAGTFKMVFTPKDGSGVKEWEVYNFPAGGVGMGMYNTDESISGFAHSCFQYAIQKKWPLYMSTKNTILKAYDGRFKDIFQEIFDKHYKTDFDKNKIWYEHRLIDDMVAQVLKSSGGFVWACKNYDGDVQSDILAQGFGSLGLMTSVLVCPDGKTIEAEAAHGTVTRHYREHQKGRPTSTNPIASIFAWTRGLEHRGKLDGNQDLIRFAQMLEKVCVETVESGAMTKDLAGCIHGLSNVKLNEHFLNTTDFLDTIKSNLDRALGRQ

IDH2 R172K = molecular target: T2, IDH2 R172K (Homo sapiens, UniProt P48735, R172K); assay: as above; type: cell-based
T2 sequence (P48735 40-452 R172K): T1 sequence (P48735 40-452 R140L) with L101R, R133K

IC50 (IDH2 R140L): 243 nM
IC50 (IDH2 R172K; 16 hours incubation, 50K cells/well, 100 μl media/well, read-out: Relative IC50 (nM) Mean, inhibition of 2-HG production): 56 nM
pIC50 (IDH2 R172K; 72 hours incubation, 12.5K cells/well, 150 μl media/well, read-out: IC50, inhibition of 2-HG production): 7.87
SMILES: C=CC(=O)N1CCN([C@@H](CC2CC2)c2ccc([C@H](C)Nc3ncc4c(n3)N(CC)C(=O)OC4)cc2)CC1 [Compound A, 7-[[(1S)-1-[4-[(1S)-2-cyclopropyl-1-(4-prop-2-enoylpiperazin-1-yl)ethyl]phenyl]ethyl]amino]-1-ethyl-4H-pyrimido[4,5-d][1,3]oxazin-2-one]
